System: RKN J2
Test: RKN J2 dispersal away from the pheromone application site
Assay type: in vivo, Meloidogyne spp.
Settings: for activity as a repellent (in words): single ascarosides vs presented together
Description: FIG. 2. RKN J2 responds to pheromones purified from S. carpocapsae growth medium within 2 hours. The 57% MeOH extraction only contains one pheromone, ascr #10, which is also secreted by RKN. […] The 73% MeOH extraction includes both ascr #10 and ascr #18. Both of these pheromones are released by RKN J2. We can already see a synergy and recognition and 15% more J2 left the pheromone application spot due to recognition of the pheromone signals. […] The figure is representative of the 2 independent experiments repeated in time and each experiment has 6 independent replications.
FIG. 3. RKN J2 response to pheromones extracted from S. feltiae growth medium within 2 h of exposure. Control has only water. Pheromones resuspended in water. The experiment has 5 independent replications.
We extracted the pheromones with 58% and 73% Methyl alcohol using S. carpocapsae insect host cadavers, the growth medium for S. carpocapsae. Then the extracts were dried and re-suspended in MILLIQ water. Centrifuged at 6000 r.c.f. to remove insoluble material and then dried using a speed vac. […] This particular fraction only included one ascaroside, ascr #10, common between RKN and S. carpocapsae. […] The 73% MeOH extract contained two common pheromones, ascr #10 and ascr #18, between RKN and S. carpocapsae. The two pheromones together caused 15% more RKN J2 to move away from the application site compared to water control.
We tested this with one more Steinernema species growth medium. We extracted the pheromones using 70% MeOH from the S. feltiae growth medium (insect host cadavers). This particular extraction contains the two common ascarosides, ascr #10 and ascr #18, between RKN and Steinernema species.
Since ascr #10 and […] are the only common ascarosides between Steinernema and RKN species, we looked at other species that release ascarosides that RKN J2 release.

`C[C@H](CCCCCCCCC(=O)O)O[C@@H]1O[C@@H](C)[C@H](O)C[C@H]1O` [ascr #18] was tested, and the “activity as a repellent (in words)” value was “not active”.
`C[C@H](CCCCCCC(=O)O)O[C@@H]1O[C@@H](C)[C@H](O)C[C@H]1O` [ascr #10] was tested, and the “RKN J2 response to pheromones (in words)” value (RKN J2, within 2 hours, vs water control) was “did not elicit any response” and the “activity as a repellent (in words)” value was “not active”.

Reference: patent US12070036B2, “Methods and compositions comprising nematode signalling compounds” (PHERONYM, INC., priority 2018, dated 2024)
